Assay results reported in US10633375B2, “Oxopicolinamide derivative, preparation method therefor and pharmaceutical use thereof” (Jiangsu Hengrui Medicine Co., Ltd., priority 2016, dated 2020).

What was measured:
human blood = test: In vitro anticoagulant effect on human blood (APTT, CT2); conditions: Table 2; concentration corresponding to 2 times the APTT of the blank control, human plasma
Procedure: Test Example 2: Determination of In Vitro Anticoagulant Effect of the Compounds of the Present Invention on Human Blood
1. Experimental Materials
Plasma: Human blood was collected in blood collection tubes containing no anticoagulant, and then 3.8% sodium citrate (volume ratio 1:9) was added. The tubes were centrifuged at 2500 rpm for 10 minutes at room temperature, and then the plasma was collected and stored at −80° C.;
Reagents: APTT reagent (Activated partial thromboplastin time assay kit, SIEMENS, Art. No. B4218-1), calcium chloride solution;
Instrument: Coagulation instrument (SYSMEX, CA-500).
The divided plasma was melted at room temperature and mixed well. 10000 μM the test compound dissolved in 100% DMSO was diluted to 3000, 300, 200, 150, 75, 30, 10, 3, 0.3 μM with 100% DMSO, and the blank was 100% DMSO. The reagent, plasma, and compound were placed in corresponding positions in the coagulation instrument, and APTT detection of the compound was carried out.
Curve fitting was carried out by graphpad and CT2 was calculated, i.e., the concentration of the compound corresponding to 2 times the APTT of the blank control.

[1] = molecular target: Coagulation Factor XIa protease (Homo sapiens (Human), UniProt P03951); test: Inhibition of Factor XIa detected by absorption photometry; assay type: biochemical; conditions: absorbance at 405 nm, 10 minutes at 37° C.
Sequence of Coagulation Factor XIa protease (P03951 388-625): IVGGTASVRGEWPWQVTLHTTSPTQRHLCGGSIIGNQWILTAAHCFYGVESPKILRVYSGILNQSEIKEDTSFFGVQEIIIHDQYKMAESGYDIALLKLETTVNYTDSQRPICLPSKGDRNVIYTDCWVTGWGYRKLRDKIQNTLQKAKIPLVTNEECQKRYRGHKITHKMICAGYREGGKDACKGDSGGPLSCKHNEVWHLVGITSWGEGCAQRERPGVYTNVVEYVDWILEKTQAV
Sequence of Coagulation Factor XIa protease (P03951 19-387 partner): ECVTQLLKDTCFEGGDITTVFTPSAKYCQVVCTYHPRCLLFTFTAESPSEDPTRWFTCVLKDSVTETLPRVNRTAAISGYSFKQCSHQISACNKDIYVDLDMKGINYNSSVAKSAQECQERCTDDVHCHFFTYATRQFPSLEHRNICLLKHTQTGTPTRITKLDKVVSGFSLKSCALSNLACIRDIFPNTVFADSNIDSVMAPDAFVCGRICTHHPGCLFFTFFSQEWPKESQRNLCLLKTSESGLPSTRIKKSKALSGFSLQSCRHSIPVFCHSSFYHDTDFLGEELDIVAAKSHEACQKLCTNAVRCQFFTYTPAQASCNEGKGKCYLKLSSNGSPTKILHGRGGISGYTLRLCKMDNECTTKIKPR
Summary of the method: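 Read-out was absorbance at 405 nm after 10 min incubation at 37° C. Compound dilutions in 100% DMSO (200 to 0.002 μM) were combined with FXIa (2.5 μg/ml solution), then FXIa-specific chromogenic substrate (2 mM solution) was added; both are stock concentrations, not final.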

Compound | CT2, concentration doubling APTT (human blood) [µM] | IC50 [1] [nM]
COCCC(C(=O)Nc1ccc2[nH]c(C(=O)O)cc2c1)n1cc(OC)c(-c2cc(Cl)ccc2C(C)=O)cc1=O (stereo not drawn) [Example 1, 5-(2-(4-(2-acetyl-5-chlorophenyl)-5-methoxy-2-oxopyridin-1(2H)-yl)-4-methoxybutanamido)-1H-indole-2-carboxylic acid] | 4.4 | 34
COCC[C@@H](C(=O)Nc1ccc2[nH]c(C(=O)O)cc2c1)n1cc(OC)c(-c2cc(Cl)ccc2C(C)=O)cc1=O [Example 2, (S)-5-(2-(4-(2-acetyl-5-chlorophenyl)-5-methoxy-2-oxopyridin-1(2H)-yl)-4-methoxybutanamido)-1H-indole-2-carboxylic acid] | 2.9 | 19
COCC[C@H](C(=O)Nc1ccc2[nH]c(C(=O)O)cc2c1)n1cc(OC)c(-c2cc(Cl)ccc2C(C)=O)cc1=O [Example 3, (R)-5-(2-(4-(2-acetyl-5-chlorophenyl)-5-methoxy-2-oxopyridin-1 (2H)-yl)-4-methoxybutanamido)-1H-indole-2-carboxylic acid] | >10000 | 1740
CCC(=O)c1ccc(Cl)cc1-c1cc(=O)n(C(Cc2ccccc2)C(=O)Nc2ccc(C(=O)O)cc2)cc1OC (stereo not drawn) [Example 8, 4-(2-(4-(5-chloro-2-propionylphenyl)-5-methoxy-2-oxopyridin-1(2H)-yl)-3-phenylpropanamido)benzoic acid] | 6.4 | 17
COc1cn([C@@H](Cc2ccccc2)C(=O)Nc2ccc3nn(C)cc3c2)c(=O)cc1-c1cc(Cl)ccc1C(C)=O [Example 20, (S)-2-(4-(2-acetyl-5-chlorophenyl)-5-methoxy-2-oxopyridin-1(2H)-yl)-N-(2-methyl-2H-indazol-5-yl)-3-phenylpropanamide] | 6.5 | 36
CCNC(=O)c1ccc(NC(=O)[C@H](Cc2ccccc2)n2cc(OC)c(-c3cc(Cl)ccc3C(C)=O)cc2=O)cc1 [Example 37, (S)-4-(2-(4-(2-acetyl-5-chlorophenyl)-5-methoxy-2-oxopyridin-1 (2H)-yl)-3-phenylpropanamido)-N-ethylbenzamide] | 7.8 | 29
COc1cn(C(Cc2ccccc2)C(=O)Nc2ccc(C(=O)O)cc2)c(=O)cc1-c1cc(Cl)ccc1C(=O)CC1CC1 (stereo not drawn) [Example 39, 4-(2-(4-(5-chloro-2-(2-cyclopropylacetyl)phenyl)-5-methoxy-2-oxopyridin-1(2H)-yl)-3-phenylpropanamido)benzoic acid] | 8.3 | 38
COc1cn([C@H](Cc2ccccn2)C(=O)Nc2ccc(C(=O)O)cc2)c(=O)cc1-c1cc(Cl)ccc1C(C)=O [Example 81, (R)-4-(2-(4-(2-acetyl-5-chlorophenyl)-5-methoxy-2-oxopyridin-1(2H)-yl)-3-(pyridin-2-yl)propanamido)benzoic acid] | >10000 | 2680
COc1cn([C@@H](Cc2ccccn2)C(=O)Nc2ccc(C(N)=O)cc2)c(=O)cc1-c1cc(Cl)ccc1C(C)=O [Example 85, (S)-4-(2-(4-(2-acetyl-5-chlorophenyl)-5-methoxy-2-oxopyridin-1(2H)-yl)-3-(pyridin-2-yl)propanamido)benzamide] | 6.5 | 92
COc1cn([C@@H](Cc2cccc(C#N)c2)C(=O)Nc2ccc(C(=O)O)cc2)c(=O)cc1-c1cc(Cl)ccc1C(C)=O [Example 89, (S)-4-(2-(4-(2-acetyl-5-chlorophenyl)-5-methoxy-2-oxopyridin-1(2H)-yl)-3-(3-cyanophenyl)propanamido)benzoic acid] | 5.7 | 42
CCC(=O)c1ccc(Cl)cc1-c1cc(=O)n([C@@H](Cc2ccn(C3CC3)n2)C(=O)Nc2ccc(C(=O)O)cc2)cc1OC [Example 92, (S)-4-(2-(4-(5-chloro-2-propionylphenyl)-5-methoxy-2-oxopyridin-1 (2H)-yl)-3-(1-cyclopropyl-1H-pyrazol-3-yl)propanamido)benzoic acid] | 1.2 | 
COc1cn(C(Cc2ccn(C3CC3)n2)C(=O)Nc2ccc(C(=O)O)cc2)c(=O)cc1-c1cc(Cl)ccc1C(C)=O (stereo not drawn) [Example 93, 4-(2-(4-(2-acetyl-5-chlorophenyl)-5-methoxy-2-oxopyridin-1(2H)-yl)-3-(1-cyclopropyl-1H-pyrazol-3-yl)propanamido)benzoic acid] | 2.9 | 42
COc1cn([C@@H](Cc2ccn(C3CC3)n2)C(=O)Nc2ccc(C(=O)O)cc2)c(=O)cc1-c1cc(Cl)ccc1C(C)=O [Example 94, (S)-4-(2-(4-(2-acetyl-5-chlorophenyl)-5-methoxy-2-oxopyridin-1(2H)-yl)-3-(1-cyclopropyl-1H-pyrazol-3-yl)propanamido)benzoic acid] | 2.2 | 24
COc1cn(C(Cc2ccn(C3CC3)n2)C(=O)Nc2ccc3nccnc3c2)c(=O)cc1-c1cc(Cl)ccc1C(C)=O (stereo not drawn) [Example 96, 2-(4-(2-acetyl-5-chlorophenyl)-5-methoxy-2-oxopyridin-1(2H)-yl)-3-(1-cyclopropyl-1H-pyrazol-3-yl)-N-(quinoxalin-6-yl)propanamide] | 6.7 | 32
COc1cn(C(Cc2ccn(C3CC3)n2)C(=O)Nc2ccc3nn(C)cc3c2)c(=O)cc1-c1cc(Cl)ccc1C(C)=O (stereo not drawn) [Example 97, 2-(4-(2-acetyl-5-chlorophenyl)-5-methoxy-2-oxopyridin-(2H)-yl)-3-(l-cyclopropyl-1H-pyrazol-3-yl)-N-(2-methyl-2H-indazol-5-yl)propanamide] | 5.4 | 36
COc1cn(C(Cc2ccn(C3CC3)n2)C(=O)Nc2ccc3ncncc3c2)c(=O)cc1-c1cc(Cl)ccc1C(C)=O (stereo not drawn) [Example 98, 2-(4-(2-acetyl-5-chlorophenyl)-5-methoxy-2-oxopyridin-1(2H)-yl)-3-(1-cyclopropyl-1H-pyrazol-3-yl)-N-(quinazolin-6-yl)propanamide] | 7.6 | 40
CCC(=O)c1ccc(Cl)cc1-c1cc(=O)n([C@H](CCOC(C)(C)C)C(=O)Nc2ccc(C(=O)O)cc2)cc1OC [Example 109, (R)-4-(4-(tert-butoxy)-2-(4-(5-chloro-2-propionylphenyl)-5-methoxy-2-oxopyridin-1(2H)-yl)butanamido)benzoic acid] | >10000 | 
[2H]C([2H])([2H])Oc1cn([C@@H](CCOC(C)(C)C)C(=O)Nc2ccc(C(=O)O)cc2)c(=O)cc1-c1cc(Cl)ccc1C(=O)CC [Example 177, 4-[[(2S)-4-tert-butoxy-2-[4-(5-chloro-2-propionyl-phenyl)-2-oxo-5-(trideuteromethoxy)-1-pyridyl]butyryl]amino]benzoic acid] | 1.5 | 
[2H]C([2H])([2H])Oc1cn([C@H](CCOC(C)(C)C)C(=O)Nc2ccc(C(=O)O)cc2)c(=O)cc1-c1cc(Cl)ccc1C(=O)CC [Example 178, 4-[[(2R)-4-tert-butoxy-2-[4-(5-chloro-2-propionyl-phenyl)-2-oxo-5-(trideuteromethoxy)-1-pyridyl]butyryl]amino]benzoic acid] | >10000 | 
[2H]C([2H])([2H])Oc1cn([C@@H](Cc2ccccc2)C(=O)Nc2ccc(C(=O)O)cc2)c(=O)cc1-c1cc(Cl)ccc1C(C)=O [Example 179, 4-[[(2S)-2-[4-(2-acetyl-5-chloro-phenyl)-2-oxo-5-(trideuteromethoxy)-1-pyridyl]-3-phenyl-propionyl]amino]benzoic acid] | 3.3 | 
[2H]C([2H])([2H])Oc1cn([C@H](Cc2ccccc2)C(=O)Nc2ccc(C(=O)O)cc2)c(=O)cc1-c1cc(Cl)ccc1C(C)=O [Example 180, 4-[[(2R)-2-[4-(2-acetyl-5-chloro-phenyl)-2-oxo-5-(trideuteromethoxy)-1-pyridyl]-3-phenyl-propionyl]amino]benzoic acid] | >10000 | 
[2H]c1c([2H])c([2H])c(C([2H])([2H])[C@@H](C(=O)Nc2ccc(C(=O)O)cc2)n2cc(OC)c(-c3cc(Cl)ccc3C(C)=O)cc2=O)c([2H])c1[2H] [Example 181, 4-[[(2S)-2-[4-(2-acetyl-5-chloro-phenyl)-5-methoxy-2-oxo-1-pyridyl]-3,3-dideutero-3-(2,3,4,5,6-pentadeuterophenyl)propionyl]amino]benzoic acid] | 2.3 | 
[2H]C([2H])([2H])C(=O)c1ccc(Cl)cc1-c1cc(=O)n([C@@H](Cc2ccccc2)C(=O)Nc2ccc(C(=O)O)cc2)cc1OC [Example 183, 4-[[(2S)-2-[4-[5-chloro-2-(2,2,2-trideuteroacetyl)phenyl]-5-methoxy-2-oxo-1-pyridyl]-3-phenyl-propionyl]amino]benzoic acid] | 2.6 | 
[2H]C([2H])([2H])C(=O)c1ccc(Cl)cc1-c1cc(=O)n([C@H](Cc2ccccc2)C(=O)Nc2ccc(C(=O)O)cc2)cc1OC [Example 184, 4-[[(2R)-2-[4-[5-chloro-2-(2,2,2-trideuteroacetyl)phenyl]-5-methoxy-2-oxo-1-pyridyl]-3-phenyl-propionyl]amino]benzoic acid] | >10000 | 
